This note sets out measurements from patent US9790233B2, “Compositions and methods of modulating 15-PGDH activity” (CASE WESTERN RESERVE UNIVERSITY, priority 2012, dated 2017).

Like-named read-outs stand apart in the source and are kept apart here.

Assay type in all cases: cell-based
Assay [1] relates to 15-PGDH luciferase fusion construct in V9m reporter cell line. Description: 15-PGDH-luciferase fusion gene reporter induction, V9m cells. Conditions: % induction of luciferase activity over basal level.
In assay [2] the test system is 15-PGDH luciferase fusion construct in LS174T reporter cell line. Description: 15-PGDH-luciferase fusion gene reporter induction, LS174T cells. Conditions: Homo sapiens.
Assay [3] has as its system 15-PGDH luciferase fusion construct in Vaco503 reporter cell line. Description: 15-PGDH-luciferase fusion gene reporter induction, V503 cells. Conditions: read-out: V503-3H9-7 reporter activity, % ([…]), V503 reporter cells, […] compound, % induction of luciferase activity over basal level.
The mark [4] stands for this setting: read-out: V9M-SC3 Reporter activity ([…]) (%), V9m reporter cells, […] compound, read-out: V9M-SC3 Reporter activity (2.5 μM) (%).
[5] abbreviates: read-out: V9M-SC3 Reporter activity ([…]), %, V9m reporter cells, […] compound, read-out: V9M-SC3 Reporter activity (7.5 μM), %.
Setting [6] is: read-out: Ls174T-SC1 reporter activity, % ([…]), LS174T reporter cells, […] compound, % induction of luciferase activity over basal level, read-out: Ls174T-SC1 reporter activity, % (2.5 μM).
[7] abbreviates: read-out: Ls174T-SC1 reporter activity, % ([…]), LS174T reporter cells, […] compound, % induction of luciferase activity over basal level, read-out: Ls174T-SC1 reporter activity, % (7.5 μM).
[8] abbreviates: read-out: V503-3H9-7 reporter activity, % (2.5 μM).
Setting [9] is: read-out: V503-3H9-7 reporter activity, % (7.5 μM).

For the compound `COc1ccc(OC)c(N(CC(=O)Nc2cncc(C)c2)S(=O)(=O)c2ccccc2)c1` [SW202974], the activation at […] is -9.04% in assay [1] (setting [4]); 35.9% in assay [1] (setting [5]); -8.77% in assay [2] (setting [6]); 34.8% in assay [2] (setting [7]); 59.9% in assay [3] (setting [8]); 179% in assay [3] (setting [9]).

For `COc1ccc(OC)c(N(CC(=O)Nc2ccccc2C)S(=O)(=O)c2ccccc2)c1` [SW202975], the activation at […] in assay [1] (setting [4]) was -26.6%; in assay [1] (setting [5]), -8.97%; in assay [2] (setting [6]), -7.32%; in assay [2] (setting [7]), 17.2%; in assay [3] (setting [8]), 47.4%; in assay [3] (setting [9]) it was 116%.

`COc1cccc(NC(=O)CN(c2cc(OC)ccc2OC)S(=O)(=O)c2ccccc2)c1` [SW202976]: the activation at […] in assay [1] (setting [4]) was -18.5%; in assay [1] (setting [5]), 9.6%; in assay [2] (setting [6]) it was -9.97%; in assay [2] (setting [7]), 30.1%; in assay [3] (setting [8]), 36.8%; in assay [3] (setting [9]) it was 138%.

As to `COc1ccc(OC)c(N(CC(=O)OC2CCCCC2)S(=O)(=O)c2ccccc2)c1` [SW202978], the activation at […] is -13.8% in assay [1] (setting [4]); -0.07% in assay [1] (setting [5]); -10.1% in assay [2] (setting [6]); 20.4% in assay [2] (setting [7]); 46.8% in assay [3] (setting [8]); 116% in assay [3] (setting [9]).

Regarding `COc1ccc(OC)c(N(CC(=O)OC(C)(C)C)S(=O)(=O)c2ccccc2)c1` [SW202979], the activation at […] is -14.4% in assay [1] (setting [4]); 10.8% in assay [1] (setting [5]); -8.92% in assay [2] (setting [6]); 17.8% in assay [2] (setting [7]); 41.6% in assay [3] (setting [8]); 133% in assay [3] (setting [9]).

As to `COC(=O)CN(c1cc(OC)ccc1OC)S(=O)(=O)c1ccccc1` [SW202980], the activation at […] in assay [1] (setting [4]) was -27.6%; in assay [1] (setting [5]) it was -13.4%; in assay [2] (setting [6]) it was -7.34%; in assay [2] (setting [7]), 5.17%; in assay [3] (setting [8]), 11.4%; in assay [3] (setting [9]), 50.6%.

With `COc1ccc(OC)c(N(CC(=O)Nc2cccc(Cl)c2)S(=O)(=O)c2ccccc2)c1` [SW202985], the activation at […] in assay [1] (setting [4]) is -27.3%; in assay [1] (setting [5]), -21.9%; in assay [2] (setting [6]), -4.89%; in assay [2] (setting [7]), 26.3%; in assay [3] (setting [8]), 79.6%; in assay [3] (setting [9]), 150%.

Consider `CCCOC(=O)CN(c1cc(OC)ccc1OC)S(=O)(=O)c1ccccc1` [SW202986], for which the activation at […] was -22.9% in assay [1] (setting [4]); -9.6% in assay [1] (setting [5]); 0.21% in assay [2] (setting [6]); 33.8% in assay [2] (setting [7]); 60.2% in assay [3] (setting [8]); 175% in assay [3] (setting [9]).

Consider `COc1ccc(OC)c(N(CC(=O)Nc2ccccc2Cl)S(=O)(=O)c2ccccc2)c1` [SW202987], for which the activation at […] in assay [1] (setting [4]) is -22%; in assay [1] (setting [5]) it was -21%; in assay [2] (setting [6]), -8.3%; in assay [2] (setting [7]), 20.6%; in assay [3] (setting [8]), 70.1%; in assay [3] (setting [9]), 145%.

Turning to `COc1ccc(OC)c(N(C(C)C(=O)Nc2cccnc2)S(=O)(=O)c2ccccc2)c1` (stereo not drawn) [SW202991], the activation at […] in assay [1] (setting [4]) is -25%; in assay [1] (setting [5]), -7.5%; in assay [2] (setting [6]), -15.6%; in assay [2] (setting [7]) it was 2.09%; in assay [3] (setting [8]) it was -6.08%; in assay [3] (setting [9]), 8.9%.

For `COc1ccc(OC)c(N(CC(=O)Nc2cccnn2)S(=O)(=O)c2ccccc2)c1` [SW203680], the activation at […] worked out at 14% in assay [1] (setting [4]); 25.2% in assay [1] (setting [5]); 11.7% in assay [2] (setting [6]); 46% in assay [2] (setting [7]); 10.4% in assay [3] (setting [8]); 33% in assay [3] (setting [9]).
